The target of assay [1] is T1, recombinant human cannabinoid CB1 receptor (Homo sapiens, UniProt P21554).
T1 construct: purchased Receptor Biology RB-HCB1
Description: [3H] CP-55,940 competition binding to recombinant cannabinoid receptor membranes (CB1), reported as the CB1/CB2 selection ratio. Conditions: Ki CB1 / Ki CB2, same binding assay. On the procedure: (§1) Potential cannabinoid receptor ligands were screened for the ability to compete with [^3H] CP-55,940, which is a known receptor ligand, for binding to recombinant cannabinoid receptors. Test compounds were serially diluted in Diluent Buffer (50 mM Tris pH 7.1, 1 mM EDTA, 3 mM MgCl2, 0.1% BSA, 10% DMSO, 0.36% methyl cellulose (Sigma M-6385)) from stocks prepared in 100% DMSO. Aliquots (10 μL) were transferred into 96-well microtiter plates. Membrane preparations of recombinant human cannabinoid CB2 receptor (Receptor Biology #RB-HCB2) or recombinant human cannabinoid CB1 receptor (Receptor Biology #RB-HCB1) were diluted to 0.3 mg/mL in Binding Buffer (50 mM Tris pH 7.2, 1 mM EDTA, 3 mM MgCl2, 0.1% BSA). Aliquots (50 μL) were added to each well of the microtiter plate. The binding reactions were initiated by addition of [^3H] CP-55,940 (New England Nuclear #NET 1051; specific activity=180 Ci/mmol) to each well of the microtiter plate. Each 100 μl reaction mixture contained 0.48 nM [^3H] CP-55,940, 15 μg membrane protein in binding buffer containing 1% DMSO and 0.036% methyl cellulose. Following incubation for 2 hours at room temperature, the reactions were filtered through 0.5% polyethylenimine-coated GF/C filter plates (UniFilter-96, Packard) with a TomTec Mark 3U Harvester (Hamden, Conn.). The filter plate was washed 5 times with binding buffer, rotated 180°, then re-washed 5 times with binding buffer. Bound radioactivity was quantitated following addition of 30 μl of Packard Microscint 20 scintillant in a Packard TopCount NXT microplate scintillation counter. Non-linear regression analysis of the resulting data was performed using Prism 2.0b (GraphPad, San Diego, Calif.).

The target of assay [2] is T2, recombinant human cannabinoid CB2 receptor (Homo sapiens, UniProt P34972).
T2 construct: purchased Receptor Biology RB-HCB2
T2 sequence (P34972 whole entry): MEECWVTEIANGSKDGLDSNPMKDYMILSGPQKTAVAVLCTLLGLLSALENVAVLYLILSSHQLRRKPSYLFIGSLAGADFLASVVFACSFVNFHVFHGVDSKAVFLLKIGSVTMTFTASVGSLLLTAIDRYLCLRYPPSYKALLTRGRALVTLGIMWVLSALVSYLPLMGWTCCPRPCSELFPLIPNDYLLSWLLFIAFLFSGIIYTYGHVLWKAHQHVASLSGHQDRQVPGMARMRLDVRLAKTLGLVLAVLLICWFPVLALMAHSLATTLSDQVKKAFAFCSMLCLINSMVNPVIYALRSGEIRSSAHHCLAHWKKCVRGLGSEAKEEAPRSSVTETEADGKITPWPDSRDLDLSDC
Description: [3H] CP-55,940 competition binding to recombinant cannabinoid receptor membranes (CB2). On the procedure:
as §1
The activities (potencies) for the compounds of the invention are determined by measuring their Ki values.

Where [3] appears, read: 0.48 nM [3H] CP-55,940, 15 μg membrane protein, 2 hours at room temperature, read-out: Ki values (CB2 receptor).

pKi: −log10 of the molar value. Read-outs that look alike come from different tables or passages of the source.

T1 sequence (P21554 whole entry): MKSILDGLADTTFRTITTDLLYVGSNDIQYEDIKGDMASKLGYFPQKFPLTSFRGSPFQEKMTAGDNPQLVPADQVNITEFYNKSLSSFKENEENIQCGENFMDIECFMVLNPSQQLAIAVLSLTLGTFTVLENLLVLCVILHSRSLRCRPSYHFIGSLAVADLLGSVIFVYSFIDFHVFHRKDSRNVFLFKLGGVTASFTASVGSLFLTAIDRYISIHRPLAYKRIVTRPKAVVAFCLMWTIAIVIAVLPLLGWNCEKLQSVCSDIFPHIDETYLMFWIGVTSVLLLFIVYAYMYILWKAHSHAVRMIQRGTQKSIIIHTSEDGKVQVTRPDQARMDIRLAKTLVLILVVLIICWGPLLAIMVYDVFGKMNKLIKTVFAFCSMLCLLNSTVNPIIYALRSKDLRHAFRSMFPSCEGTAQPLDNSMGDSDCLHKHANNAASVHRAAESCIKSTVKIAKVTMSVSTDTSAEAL

Broadly, the pKi is the Ki on a negative log10 scale, so that one unit is a factor of ten. Take `CS(=O)(=O)NC1CC12CCN(S(=O)(=O)c1cc3ccccc3n1S(=O)(=O)c1ccccc1F)CC2` (racemic) [compound 20]: the “selection ratio of the Ki value of the CB1 receptor to that of the CB2 receptor” value (shortened to “selection ratio”) in assay [1] is recorded as “about 15000”. In addition, in assay [2] (setting [3]), the pKi is 9.62.
With `O=S(=O)(c1ccccn1)c1cc(Cl)ccc1S(=O)(=O)N1CC2C(CNS(=O)(=O)C(F)(F)F)C2C1` (stereo not shown) [compound 6], the “selection ratio” value in assay [1] is approximately 6300. In assay [2] (setting [3]), the pKi is 8.82.
For `CS(=O)(=O)NCC1C2CN(S(=O)(=O)c3ccc(Cl)cc3S(=O)(=O)c3ccccc3F)CC12` (stereo not shown) [compound 9], in that order: approximately 2700 and 9.19.
In the same order, the values of `O=S(=O)(c1ccccc1F)c1cc(Cl)ccc1S(=O)(=O)N1CC2C(CNS(=O)(=O)C(F)(F)F)C2C1` (stereo not shown) [compound 11] are “about 1000” and 8.84.
For `CS(=O)(=O)NCC1C2CN(S(=O)(=O)c3cc4ccccc4n3S(=O)(=O)c3ccccc3F)CC12` (stereo not shown) [compound 13], in that order: approximately 3400 and 9.00.
`O=S(=O)(c1cc2ccccc2n1S(=O)(=O)c1ccccc1F)N1CCC2(CC1)C[C@@H]2NS(=O)(=O)C(F)(F)F` [compound 22]: the “selection ratio” value in assay [1] is reported as approximately 400. Further, the pKi in assay [2] (setting [3]) was 9.00.
As for `O=S(=O)(c1ccccn1)c1cc(C(F)(F)F)ccc1S(=O)(=O)N1CCC2(CC1)CC2NS(=O)(=O)C(F)(F)F` (stereo not shown) [compound 31], the “selection ratio” value in assay [1] is given as approximately 71. Moreover, in assay [2], the negative-log Ki (pKi) was 8.30.
On to `O=S(=O)(c1cc2ccccc2n1S(=O)(=O)c1ccccn1)N1CCC2(CC1)CC2NS(=O)(=O)C(F)(F)F` (stereo not shown) [compound 41], for which the “selection ratio” value in assay [1] is approximately 3500. Further, the pKi in assay [2] (setting [3]) is 9.40.
For the compound `CS(=O)(=O)NCC1CC2CCC(C1)N2S(=O)(=O)c1cc2ccccc2n1S(=O)(=O)c1ccccc1F` (stereo not shown) [compound 47], the “selection ratio” value in assay [1] is approximately 790. Also, the pKi in assay [2] was 8.15.
As to `CCC1(CNCC(F)(F)F)CC2CCC(C1)N2S(=O)(=O)c1ccc(Cl)cc1S(=O)(=O)c1ccccn1` (stereo not shown) [compound 58], in assay [1], the “selection ratio” value is reported as approximately 770. The pKi in assay [2] is 7.39.
For `CCC1(CNS(=O)(=O)C(F)(F)F)CC2CCC(C1)N2S(=O)(=O)c1ccc(Cl)cc1S(=O)(=O)c1ccccn1` (stereo not shown) [compound 59], in that order: approximately 52 and 7.59.
For the compound `O=S(=O)(c1cc2cccnc2n1S(=O)(=O)c1ccccc1F)N1CC2C(CNS(=O)(=O)C(F)(F)F)C2C1` (stereo not shown) [compound 60], the “selection ratio” value in assay [1] is approximately 4100. For the same compound, the pKi in assay [2] (setting [3]) is 8.48.
For the compound `Cn1c(S(=O)(=O)N2CCC3(CC2)CC3NS(=O)(=O)C(F)(F)F)c(S(=O)(=O)c2ccccc2F)c2ccccc21` (stereo not shown) [compound 61], the “selection ratio” value in assay [1] was approximately 1200. In addition, in assay [2], the pKi is 8.41.
In the case of `CC(C)n1c(S(=O)(=O)N2CC3C(CNC(=O)OC(C)(C)C)C3C2)c(S(=O)(=O)c2ccccc2F)c2ccccc21` (stereo not shown) [compound 62], the “selection ratio” value in assay [1] was approximately 1.9. Besides, in assay [2], the pKi was 7.55.
